This is an account of results in US7618972B2, “Substituted triazole derivatives as oxytocin antagonists” (Pfizer Inc, priority 2005, dated 2009).

In this assay the target is T1, oxytocin receptor (CHO-OTR/NFAT-β-Lactamase cells) (Homo sapiens, UniProt P30559).
T1 construct: expressed in transfected cells; host or cells: CHO-OTR cell line, further transfected with the NFAT-β-lactamase reporter construct
T1 sequence (P30559 1-389): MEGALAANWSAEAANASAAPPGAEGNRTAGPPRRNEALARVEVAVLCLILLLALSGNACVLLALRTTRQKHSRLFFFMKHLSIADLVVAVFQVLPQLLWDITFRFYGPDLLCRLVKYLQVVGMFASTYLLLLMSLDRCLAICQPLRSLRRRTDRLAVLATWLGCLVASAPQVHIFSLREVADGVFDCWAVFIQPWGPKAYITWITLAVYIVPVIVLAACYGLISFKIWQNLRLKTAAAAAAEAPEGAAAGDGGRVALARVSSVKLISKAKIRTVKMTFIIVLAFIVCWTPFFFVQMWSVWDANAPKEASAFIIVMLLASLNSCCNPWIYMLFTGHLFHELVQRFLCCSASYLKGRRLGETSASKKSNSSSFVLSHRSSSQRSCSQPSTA
Briefly: Oxytocin Receptor Beta-Lactamase Assay. In kind it is cell-based. As to conditions: oxytocin antagonist activity, n=3. The protocol: A suitable assay for determining the oxytocin antagonist activity of a compound is detailed herein below.
Oxytocin Receptor Beta-Lactamase Assay
Cells used are CHO-OTR/NFAT-β-Lactamase. The NFAT-β-lactamase expression construct was transfected into the CHO-OTR cell line and clonal populations were isolated via fluorescence activated cell sorting (FACS). An appropriate clone was selected to develop the assay. […]
Cells grown at 80-90% confluence were harvested and counted. […]
Preparation of 1 ml of 6× Loading Buffer with Enhanced Loading Protocol (this requires scale-up according to number of plates to be screened) • 12 μl of solution A (1 mM CCF4-AM in Dry DMSO) was added to 60 μl of solution B (100 mg/ml Pluronic-F127 in DMSO+0.1% Acetic Acid) and vortexed. • The resulting solution was added to […] of solution C (24% w/w PEG400, 18% TR40 v/v in water). • 75 μl of solution D was added (200 mM probenecid in 200 mM NaOH). • 10 μl of 6× Loading Buffer was added to all wells and incubated for 1.5 hrs-2 hrs at room temperature in the dark. • The plates were read using an LJL Analyst, Excitation 405 nm, Emission 450 nm and 530 nm, gain optimal, lagtime 0.40 μs integration, 4 flashes, bottom reading.

As to `COc1ccc(-n2c(C)nnc2-c2cnc(-c3ccc(F)cc3Cl)cn2)cn1` [Example 1, 2-(2-Chloro-4-fluoro-phenyl)-5-[4-(6-methoxy-pyridin-3-yl)-5-methyl-4H-[1,2,4]triazol-3-yl]-pyrazine], the affinity, expressed as Ki, was 5.4 nM.

For orientation: Ki means a dissociation constant, usually derived from enzyme kinetics or from competition with a known ligand. Read a low Ki as a stronger hold on the target.
